Measured values as given in patent US12673044B2, “Methods of treating borderline personality disorder” (ORYZON GENOMICS, S.A., priority 2019, dated 2026).

What was measured:
[1] = test system: BPD patients; experiment: Phase IIa REIMAGINE trial, BPD cohort: efficacy by Borderline Personality Disorder Checklist (BPDCL); format: in vivo, human; conditions: 5 BPD patients, 1.2 mg/day oral free base, 5 days on/2 days off, 8 weeks, paired one-tail t-test
Excerpt: (§1) As part of a Phase IIa clinical trial (REIMAGINE trial, EudraCT number 2018-002140-88) to evaluate the safety, tolerability and efficacy of the KDM1A inhibitor vafidemstat to treat aggression in adult population in patients with different CNS disorders, a cohort of BPD patients was recruited and treated with vafidemstat for 8 weeks. A summary of the protocol of this clinical trial and results obtained in the BPD cohort are provided below.
(§2) Reimagine is a unicenter, open-label, 1-arm, 8-week clinical study to evaluate the efficacy, safety and tolerability of vafidemstat in aggression in adult population with Alzheimer's Disease (AD), Lewy Body Dementia (LBD), Adult attention Deficit Hyperactivity Disorder (ADHD), Borderline Personality Disorder (BPD) and Autism Spectrum Disorder (ASD). Six patients to be recruited per disorder.
Treatment: All patients received vafidemstat (as free base) at a dose of 1.2 mg/day, administered orally as a single capsule, in a 5 days on/2 days off schedule, during 8 weeks.
Six BPD patients were recruited, but there was one drop-out, and therefore the results as described herein correspond to the 5 BPD subjects eligible for analysis. A summary of the patients recruited in this BPD cohort (demographic data at baseline) can be found in Table 1.
Assessment of efficacy of treatment in BPD patients was performed using a validated scale specific for BPD, the Borderline Personality Disorder Checklist (BPDCL). The BPDCL is an instrument specifically designed to evaluate the subjective burden of BPD in the last month and also to rate BPD changes after therapeutic intervention. Originally developed in Dutch, the BPDCL has been subsequently translated into English, Spanish and other languages, and has been applied to clinical and non-clinical samples. […]
One can use the total sum score on the BPDCL (BPDCL Total Score) as an overall index of the subjective burden caused by BPD symptoms, or one can use sum scores for one or more of the separate BPD domains. […] Efficacy assessments were always measured prior to treatment administration on the corresponding visit day. […]

[2] = test system: BPD patients; experiment: Phase IIa REIMAGINE trial, BPD cohort: safety and tolerability; format: in vivo, human; conditions: 1.2 mg/day oral free base, 5 days on/2 days off, 8 weeks; without significant adverse events
Excerpt: as §1, §2
Main objective of the trial: To evaluate the safety and tolerability of vafidemstat in adult population with Alzheimer's Disease (AD), Lewy Body Dementia (LBD), Adult attention deficit hyperactivity disorder (ADHD), Borderline Personality Disorder (BPD), Autism Spectrum Disorder (ASD)
Treatment: All patients received vafidemstat (as free base) at a dose of 1.2 mg/day, administered orally as a single capsule, in a 5 days on/2 days off schedule, during 8 weeks. […]

**Q.** Nc1nnc(CN[C@@H]2C[C@H]2c2ccc(OCc3ccccc3)cc2)o1 [vafidemstat, 5-((((1R,2S)-2-(4-(benzyloxy)phenyl)cyclopropyl)amino)methyl)-1,3,4-oxadiazol-2-amine] was tested. Which “Aggression-related BPDCL domains combined score (anger control, impulsivity, (para)suicide), change from visit 1 (baseline) to visit 7” value ([1]; p=0.0029, FIG. 1) did it give?
**A.** statistically significant reduction

**Q.** And the “BPDCL Total score, change from visit 1 (baseline) to visit 7” value ([1]; p=0.0048, FIG. 2)?
**A.** statistically significant reduction

**Q.** What about the “Non-aggression-related BPDCL domains combined score (abandonment, relationships, identity disturbance, affective instability, emptiness, dissociation), change from visit 1 (baseline) to visit 7” value ([1]; p=0.0234, FIG. 3) of the same compound?
**A.** statistically significant reduction

**Q.** What about the “Safety and tolerability of treatment in BPD patients” value [2] of the same compound?
**A.** safe and well tolerated
